In patent US20230000813A1, “COMPOUND FOR THE TREATMENT OF BOVINE OR SWINE RESPIRATORY DISEASE” (Intervet Inc., priority 2016, published 2023):
In brackets after ≈: the same amount, converted by molar mass.

Experiments:
Assay in all cases: MIC, broth-microdilution (CLSI VET01-A4)
Format in all cases: cell-based
[1] = system: Mannheimia haemolytica MH 13065 (XB0446-6003.9, BRD field isolate)
Summary of the method: (§1)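 Broth microdilution per CLSI VET01-A4 using doubling dilution series of compound. MIC taken as the lowest concentration with no turbidity visible to the unaided eye, interpreted per CLSI VET01-S3.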

[2] = system: Mannheimia haemolytica MH 13093 (XB0472-6014.1, BRD field isolate)
Summary of the method: as §1

[3] = system: Mannheimia haemolytica MH 6374 (ATCC 33396, reference strain); conditions: Mannheimia haemolytica MH 6374; read-out: MIC MH 6374
Summary of the method: (§2)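 Visual no-turbidity endpoint over twofold compound dilutions in microdilution trays, interpreted according to CLSI VET01-S3.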

[4] = system: Pasteurella multocida PM 12080 (IV102277-0093, BRD field isolate); conditions: Pasteurella multocida PM 12080
Summary of the method: as §2

[5] = system: Mannheimia haemolytica MH 12587 (1071, BRD field isolate, macrolide-resistance: erm+, E+); conditions: Mannheimia haemolytica MH 12587, macrolide-resistant
Summary of the method: as §2

[6] = system: Pasteurella multocida PM 6267 (P 2225 (L386), reference strain, mouse infection strain); conditions: Pasteurella multocida PM 6267
Summary of the method: as §2

[7] = system: Mannheimia haemolytica MH 6357 (M7/2, reference strain, cattle infection strain); conditions: Mannheimia haemolytica MH 6357; read-out: MIC MH 6357
Summary of the method: as §2

[8] = system: Pasteurella multocida PM 10775 (080130003051, BRD field isolate); conditions: Pasteurella multocida PM 10775
Summary of the method: as §2

[9] = system: Pasteurella multocida PM 6391 (ATCC 43137, reference strain); conditions: Pasteurella multocida PM 6391; for MIC: read-out: MIC PM 6391
Summary of the method: as §2

[10] = system: Mannheimia haemolytica MH 10720 (154, BRD field isolate); conditions: Mannheimia haemolytica MH 10720; for MIC: read-out: MIC MH 10720
Summary of the method: as §2

SMILES	MIC [1]	MIC [2]	MIC [3]	MIC PM 12080 [4]	MIC MH 12587 [5]	MIC PM 6267 [6]	MIC [7]	MIC PM 10775 [8]	MIC [9]	MIC [10]	MIC MH 10720 [10]	MIC PM 6391 [9]	MIC ([4]; read-out: MIC PM 12080)
C[C@@H](O)[C@H](NC(=O)c1ccc(C#Cc2ccc(CNC3CC3)cc2)cc1)C(=O)NO [C. 103]	0.4 µM (≈ 0.163 µg/mL)	1.6 µM (≈ 0.652 µg/mL)	0.195 µM (≈ 0.0795 µg/mL)	<=0.1 μM	0.8 µM (≈ 0.326 µg/mL)	<=0.1 μM	0.391 µM (≈ 0.159 µg/mL)	<=0.1 μM	0.195 µM (≈ 0.0795 µg/mL)	0.2 µM (≈ 0.0815 µg/mL)			
C[C@@H](O)[C@H](NC(=O)c1ccc(C#Cc2ccc(CN3CCOCC3)s2)cc1)C(=O)NO [C. 192]	0.8 µM (≈ 0.355 µg/mL)	0.8 µM (≈ 0.355 µg/mL)	0.8 µM (≈ 0.355 µg/mL)	<=0.1 μM	1.6 µM (≈ 0.71 µg/mL)	<=0.1 μM	0.8 µM (≈ 0.355 µg/mL)	<=0.1 μM	0.2 µM (≈ 0.0887 µg/mL)	0.2 µM (≈ 0.0887 µg/mL)			
C[C@@H](O)[C@H](NC(=O)c1ccc(C#Cc2ccc(N)cc2)cc1)C(=O)NO [C. 245, 4-[2-(4-aminophenyl)ethynyI]-N-[(1S,2R)-2-hydroxy-1-(hydroxycarbamoyl)propyl]benzamide]	0.4 µM (≈ 0.141 µg/mL)	0.4 µM (≈ 0.141 µg/mL)	0.4 µM (≈ 0.141 µg/mL)	<=0.1 μM	0.8 µM (≈ 0.283 µg/mL)	<=0.1 μM	0.2 µM (≈ 0.0707 µg/mL)	<=0.1 μM	0.2 µM (≈ 0.0707 µg/mL)		<=0.1 μM		
C[C@@H](O)[C@H](NC(=O)c1ccc(C#Cc2ccc(CNCc3ccccn3)cc2)cc1)C(=O)NO [C. 258]	0.8 µM (≈ 0.367 µg/mL)	0.8 µM (≈ 0.367 µg/mL)	0.8 µM (≈ 0.367 µg/mL)	<=0.1 μM	1.6 µM (≈ 0.734 µg/mL)	<=0.1 μM	0.4 µM (≈ 0.183 µg/mL)	<=0.1 μM	0.2 µM (≈ 0.0917 µg/mL)	0.2 µM (≈ 0.0917 µg/mL)			
C[C@@H](O)[C@H](NC(=O)c1ccc(C#Cc2ccc(CNCc3ccco3)cc2)cc1)C(=O)NO [C. 259]	0.4 µM (≈ 0.179 µg/mL)	0.4 µM (≈ 0.179 µg/mL)	0.2 µM (≈ 0.0895 µg/mL)	<=0.1 μM	0.4 µM (≈ 0.179 µg/mL)	<=0.1 μM	0.2 µM (≈ 0.0895 µg/mL)	<=0.1 μM			<=0.1 μM	<=0.1 μM	
C[C@@H](O)[C@H](NC(=O)c1ccc(C#Cc2ccc(CNCC#N)cc2)cc1)C(=O)NO [C. 360]	0.4 µM (≈ 0.163 µg/mL)	0.8 µM (≈ 0.325 µg/mL)	0.4 µM (≈ 0.163 µg/mL)	<=0.1 μM	0.8 µM (≈ 0.325 µg/mL)	<=0.1 μM	0.4 µM (≈ 0.163 µg/mL)	<=0.1 μM		0.2 µM (≈ 0.0813 µg/mL)		<=0.1 μM	
C=CCNCc1ccc(C#Cc2ccc(C(=O)NC(C(=O)NO)C(C)(C)SC)cc2)cc1 (centres unmarked) [C. 582]	0.8 µM (≈ 0.361 µg/mL)	0.8 µM (≈ 0.361 µg/mL)	0.8 µM (≈ 0.361 µg/mL)		1.6 µM (≈ 0.723 µg/mL)	<=0.1 μM	0.8 µM (≈ 0.361 µg/mL)	<=0.1 μM	0.4 µM (≈ 0.181 µg/mL)		<=0.1 μM		0.4 µM (≈ 0.181 µg/mL)
C=CCNCc1ccc(C#Cc2ccc(C(=O)NC(C(=O)NO)C(C)(C)S(C)(=O)=O)cc2)cc1 (centres unmarked) [C. 602]	0.8 µM (≈ 0.387 µg/mL)	0.8 µM (≈ 0.387 µg/mL)	0.8 µM (≈ 0.387 µg/mL)	<=0.1 μM	1.6 µM (≈ 0.774 µg/mL)	<=0.1 μM	1.6 µM (≈ 0.774 µg/mL)	<=0.1 μM			<=0.1 μM	<=0.1 μM	
